We go through eight molecules from patent publication US20190390169A1, “PANCREATIC PROGENITOR CELL PRODUCTION METHOD” (Kyoto University, priority 2017, published 2019).

Usually inhibition stands for the drop in the measured response relative to a control, in per cent.

In one test the target is T1, CDK8/CycC (Homo sapiens, UniProt P49336).
T1 construct: purchased Carna Biosciences
The experiment in a line: CDK8-inhibiting activity (Kinase Tracer-236 / Eu-anti-GST fluorescence assay). The class given is binding. Conditions: read-out: rate of inhibition of CDK8; for inhibition at 1 µM: 1 μM test compound; for inhibition at 10 µM: 10 μM test compound. The procedure: (§1) Test compounds were evaluated for their CDK8-inhibiting activity and CDK19-inhibiting activity by the following method.
(§2) Each test compound dissolved in dimethyl sulfoxide was diluted with an assay buffer (25 mM HEPES, 10 mM MgCl2, 2 mM DL-dithiothreitol, 0.01% Tween-20) to obtain a primary dilution having a DMSO concentration of 3%. The primary dilution was dispensed at 2 μL/well to a 384-well plate. Then, a mixed solution of Eu^3+ Cryptate conjugated mouse monoclonal antibody anti-glutathione S-transferase (CisBio) diluted 267-fold with an assay buffer and 60 nM Kinase Tracer-236 (Life Technologies) was added at 2 μL/well. After the addition, a kinase solution (84 ng/mL CDK8/CycC (Carna Biosciences) diluted with an assay buffer was used for CDK8-inhibiting activity measurement, and 87 ng/mL CDC2L6/CycC (Carna Biosciences) diluted with an assay buffer was used for CDK19-inhibiting activity measurement) was further added at 2 μL/well. After the addition, the plate was left standing at room temperature for 1 hour, followed by the measurement of fluorescence intensity (excitation wavelength: 320 nm, fluorescence wavelength: 615 nm, 665 nm, delay time: 50 μsec) using a plate reader EnVision (Perkin Elmer).
(§3) When the fluorescence intensity of a reaction solution under compound non-addition conditions was used as a control and the fluorescence intensity of a reaction solution under 10 μM control compound addition conditions was used as a blank, the rate of inhibition of CDK8 or CDK19 by the test compound can be calculated according to the following expression:
(§4) Rate of inhibition (%)=(1−(Fluorescence intensity of the test compound−Blank)/(Control−Blank))×100
(§5) The control compound used was commercially available 4-(4-(2,3-dihydro-1,4-benzodioxin-6-yl)-1H-pyrazol-3-yl)benzene-1,3-diol.

A further test addresses T2, CDC2L6/CycC (CDK19) (Homo sapiens, UniProt Q9BWU1).
T2 construct: purchased Carna Biosciences
The experiment in a line: CDK19-inhibiting activity (Kinase Tracer-236 / Eu-anti-GST fluorescence assay). Format: binding. Conditions: read-out: rate of inhibition of CDK19; for inhibition at 1 µM: 1 μM test compound; for inhibition at 10 µM: 10 μM test compound. The procedure:
as §1, §2, §3, §4, §5

The test system of test [1] is Ff-WJ-18 cells (human iPS cells). The experiment in a line: Induction of differentiation of iPS cells into pancreatic progenitor cells at stage 4, flow cytometry. Conditions: stage 4, 4 days, 0.00001 μM to 1 μM, medium with or without ROCK inhibitor Y-27632, vs negative control (FIG. 2, FIG. 3). The class given is cell-based. The procedure: The human iPS cells used were Ff-WJ-18 cells (Kyoto University). The Ff-WJ-18 cells maintenance-cultured according to Reference Example 1 were induced to differentiate into pancreatic progenitor cells by the following procedures. Culture was performed at 37° C. under 5% CO2 in all cases, and the culture container used was coated with iMatrix-511(TM) (Nippi).
Ff-WJ-18 cells (70,000 cells/9.6 cm^2) were seeded to RPMI1640 medium containing 1% penicillin/streptomycin, 1% B27, activin A (100 ng/mL), CHIR99021 (3 μM), and Y-27632 (10 μM), and cultured for 1 day. The cells were further cultured for 2 days in RPMI1640 medium containing 1% penicillin/streptomycin, 1% B27, and activin A (100 ng/mL) with the medium replaced with a fresh one every day.
The resulting cells were cultured for 4 days using instead iMEM medium containing 1% penicillin/streptomycin, 1% B27, and KGF (50 ng/mL). […]
The cells after the culture at stage 4 were collected, and the proportion of NKX6.1-positive/PDX-1-positive cells was determined by flow cytometry. Likewise, the proportion of the cells was determined as to iPS cells and cells before the culture at stage 4 (s3d2: stage 3, day 2). […]
Also, an effect was compared between a factor having CDK1/2-inhibiting activity and a factor having CDK8/19-inhibiting activity by a similar method. […] The proportion of NKX6.1-positive/PDX-1-positive cells was determined.

Structures can show the parent of a compound that is named as a salt.

T1 sequence (P49336 whole entry): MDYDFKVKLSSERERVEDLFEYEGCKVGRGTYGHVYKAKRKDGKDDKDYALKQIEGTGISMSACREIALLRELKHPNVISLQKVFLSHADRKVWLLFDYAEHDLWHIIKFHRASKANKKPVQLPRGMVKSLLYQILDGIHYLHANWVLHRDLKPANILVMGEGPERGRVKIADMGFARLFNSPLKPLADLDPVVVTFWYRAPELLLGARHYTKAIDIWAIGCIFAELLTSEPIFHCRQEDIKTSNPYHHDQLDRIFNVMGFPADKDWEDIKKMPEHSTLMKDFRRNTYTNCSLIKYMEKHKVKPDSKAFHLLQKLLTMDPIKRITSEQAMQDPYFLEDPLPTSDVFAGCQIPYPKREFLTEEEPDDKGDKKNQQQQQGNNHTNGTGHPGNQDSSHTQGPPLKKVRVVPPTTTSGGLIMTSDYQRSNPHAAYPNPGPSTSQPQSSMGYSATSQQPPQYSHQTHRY
T1 sequence (P24863 whole entry partner): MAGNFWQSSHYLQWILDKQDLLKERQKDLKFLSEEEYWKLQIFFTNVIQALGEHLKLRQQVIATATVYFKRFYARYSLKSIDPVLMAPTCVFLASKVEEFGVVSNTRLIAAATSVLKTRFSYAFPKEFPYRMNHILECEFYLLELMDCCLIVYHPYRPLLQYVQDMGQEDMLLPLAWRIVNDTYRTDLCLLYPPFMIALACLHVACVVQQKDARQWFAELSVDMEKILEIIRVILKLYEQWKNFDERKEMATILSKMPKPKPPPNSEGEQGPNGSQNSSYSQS
T2 sequence (Q9BWU1 whole entry): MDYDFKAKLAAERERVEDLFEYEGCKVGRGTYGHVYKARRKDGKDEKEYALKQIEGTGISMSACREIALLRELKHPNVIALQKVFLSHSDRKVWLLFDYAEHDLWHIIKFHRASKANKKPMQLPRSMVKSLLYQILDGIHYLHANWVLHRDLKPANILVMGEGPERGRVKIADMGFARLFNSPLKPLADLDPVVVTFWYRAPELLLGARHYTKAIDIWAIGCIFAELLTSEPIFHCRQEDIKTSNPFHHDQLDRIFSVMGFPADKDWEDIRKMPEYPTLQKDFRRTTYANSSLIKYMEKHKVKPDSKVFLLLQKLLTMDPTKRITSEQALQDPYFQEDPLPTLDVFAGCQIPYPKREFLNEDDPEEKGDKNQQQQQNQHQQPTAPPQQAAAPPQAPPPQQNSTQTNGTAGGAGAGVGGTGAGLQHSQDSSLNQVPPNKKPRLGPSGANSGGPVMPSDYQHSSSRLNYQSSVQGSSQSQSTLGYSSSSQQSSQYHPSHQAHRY
T2 sequence (P24863 whole entry partner): as the sequence (P24863 whole entry partner) above

With `CCCCNC(=O)c1ccc2cncc(-c3ccc(OC)cc3)c2n1` [Compound 6, N-Butyl-8-(4-methoxyphenyl)-1,6-naphthyridine-2-carboxamide trifluoroacetate], at CDK8/CycC, the inhibition at 1 µM was 103% and the inhibition at 10 µM came to 102%. In addition, on CDC2L6/CycC (CDK19), the inhibition at 1 µM stood at 100% and the inhibition at 10 µM was 100%.

Regarding `O=C1Nc2ccccc2N(S(=O)(=O)c2ccc(F)cc2)C1CCSc1ccc2nccn2n1` (centres unmarked) [Compound 2, 4-((4-Fluorophenyl)sulfonyl)-3-(2-(imidazo[1,2-b]pyridazin-6-ylsulfanyl)ethyl)-3,4-dihydroquinoxalin-2(1H)-one], on CDK8/CycC, the inhibition at 1 µM stood at 100% and the inhibition at 10 µM worked out at 100%. Besides, on CDC2L6/CycC (CDK19), the inhibition at 1 µM was found to be 102% and the inhibition at 10 µM was determined as 103%.

Take `Cn1ncc2c1-c1c(Oc3ccc(F)cc3F)sc(C(N)=O)c1CC2` [Compound 1, 8-(2,4-Difluorophenoxy)-1-methyl-4,5-dihydro-1H-thieno[3,4-g]indazole-6-carboxamide]: on CDK8/CycC, the inhibition at 1 µM amounted to 97% and the inhibition at 10 µM was 94%. In addition, at CDC2L6/CycC (CDK19), the inhibition at 1 µM worked out at 99% and the inhibition at 10 µM was 96%.

Regarding `CCCN(CCC)C(=O)c1ccc2cncc(-c3ccc(C)cc3)c2n1` [Compound 7, 8-(4-Methylphenyl)-N,N-dipropyl-1,6-naphthyridine-2-carboxamide trifluoroacetate], the inhibition at 1 µM came out at 92% at CDK8/CycC and 83% at CDC2L6/CycC (CDK19). The inhibition at 10 µM at CDK8/CycC is 104%; on CDC2L6/CycC (CDK19), 100%.

As to `Nc1nc(Nc2ccc(S(N)(=O)=O)cc2)nn1C(=S)Nc1c(F)cccc1F` [CAS443798-55-8], in test [1], the “proportion of NKX6.1-positive/PDX-1-positive cells” value is “efficient induction of differentiation into pancreatic progenitor cells was not observed”.

As to `c1ccc(COc2cccc(-c3c[nH]c4ncccc34)c2)cc1` [Compound 4, 3-(3-(Benzyloxy)phenyl)-1H-pyrrolo[2,3-b]pyridine], on CDK8/CycC, the inhibition at 1 µM stood at 91% and the inhibition at 10 µM came to 102%. At CDC2L6/CycC (CDK19), the inhibition at 1 µM amounted to 94% and the inhibition at 10 µM is 101%.

As for `Oc1ccc(-c2n[nH]cc2-c2ccc3c(c2)OCCO3)c(O)c1` [Compound 5, 4-(4-(2,3-Dihydro-1,4-benzodioxin-6-yl)-1H-pyrazol-3-yl)benzene-1,3-diol, reference compound], on CDK8/CycC, the inhibition at 1 µM turned out to be 87% and the inhibition at 10 µM amounted to 100%. On CDC2L6/CycC (CDK19), the inhibition at 1 µM was 86% and the inhibition at 10 µM came out at 100%.

For the molecule `NC(=O)c1ccc(-c2c[nH]c3ncccc23)cc1NCc1ccccc1` [Compound 3, 2-(Benzylamino)-4-(1H-pyrrolo[2,3-b]pyridin-3-yl)benzamide], the inhibition at 1 µM on CDK8/CycC and on CDC2L6/CycC (CDK19) was 101% throughout. Moreover, the inhibition at 10 µM came to 105% at CDK8/CycC and 104% on CDC2L6/CycC (CDK19).
